Results published in patent US20240016882A1, “AUTOPHAGY-INHIBITING PEPTIDE AND ORGANIC ACID SALT THEREOF ADDRESSING ISSUES OF VASCULAR PERMEABILITY” (BIOTEMPT B.V., priority 2020, published 2024).
Read-outs that look alike come from different tables or passages of the source. Ends that are not written are not given here. Peptide text beside a SMILES is read from it.

How the values were obtained:
[1] = Solubility / aggregation points of AQGV salts in 0.9% NaCl
Description: (§1) At first attempts were made to mix a solution of the free base and an acid in order to achieve a concentrated DMSO solution of the salt and subsequently dilute this in water in order to determine solubility. […] It was decided to determine the solubility of the salts required by dilution of known amount of salts (not soluble) till a clear solution is obtained.

[2] = Dose-escalating phase I studies: pharmacokinetics, safety and tolerability of AQGV; format: in vivo, humans (healthy subjects)
Description: Three double-blind, randomized, placebo-controlled, dose-escalating phase I studies in healthy subjects were conducted to evaluate safety, tolerability and pharmacokinetics of AQGV (SEQ ID NO: 5). In the first single dose study, 32 subjects were assigned to four single dosage groups (1, 3, 10 or 30 mg/kg). In the second multiple dosage study, 24 subjects were assigned to three dosing groups (10, 20 or 30 mg/kg) and received study medication thrice a day for three days. In the third continuous dosing study, 24 subjects were assigned to three dosing groups (15, 30 or 90 mg/kg/hour) to receive study medication by 2-hour continuous iv infusion. Pharmacokinetics (PK), safety and tolerability assessments were performed up to 14-days.

[3] = Previous first in human study of AQGV; format: in vivo; settings: up to i.v. doses of 30 mg/kg three times a day (90 mg/kg daily) for three days
p38 MAPK = assay: Phosphorylation status after fMLP challenge of hPBMCs: p38 MAPK; format: cell-based, human; settings: 1 μM fMLP
Description: (§2) Human-derived peripheral blood monocytes as a prototype cell-system for FPR-expression were isolated from healthy volunteers (hPBMCs) according to routine procedures^1 at University Medical Centre Groningen, The Netherlands. Subsequently PMBC were incubated with the Biotempt-supplied peptide AQGV (SEQ ID NO: 5) (which was freshly prepared as a 20 […] stock solution in bidistilled water) or treated with the vehicle for 10 min. Then hPMBCs were challenged with 1 μM fMLP for various time periods (see results FIGS. 4a, b, 4c and 4d). Each stimulus 0, 30, 60, 300 and 600 seconds at two concentrations AQGV (SEQ ID NO: 5), 20 ng/ml and 50 ng/ml and in six-fold. Following stimulation with fMLP for the indicated time periods, the phosphorylation status of p38MAPK, JNK, PKB, P42/p44MAPK/ERK1,2 and STAT3 was analysed 3. STAT3 was undetectable, JNK and P42/p44MAPK/ERK1,2.

P42/p44MAPK/ERK1,2 = assay: Phosphorylation status after fMLP challenge of hPBMCs: P42/p44MAPK/ERK1,2; format: cell-based, human; settings: hPBMC, 1 μM fMLP, 0-600 seconds
Description: as §2

PKB (also known as AKT) = assay: Phosphorylation status after fMLP challenge of hPBMCs: PKB (AKT); format: cell-based, human; settings: 1 μM fMLP
Description: as §2

JNK = assay: Phosphorylation status after fMLP challenge of hPBMCs: JNK; format: cell-based, human; settings: hPBMC, 1 μM fMLP, 0-600 seconds
Description: as §2

human cells = settings: AJ Meijer et al Amino Acids 2015; cited from earlier work
autophagy = settings: cited from earlier work
mTOR kinases = mTOR kinases (Homo sapiens, UniProt P42345); settings: cited from earlier work
[4] = Description: as §1
[5] = parameters: species or system male CD-1 mice; settings: mouse, in vivo
Description: The present study, which was conducted by TNO Biosciences, Utrechtseweg, Netherlands, was designed to provide data on the distribution and metabolism of [14C]-AQGV (“AQGV” disclosed as SEQ ID NO: 5) (Ala-Gln-[1-^14C]Gly-Val (“AQGV” disclosed as SEQ ID NO: 5)) in male CD-1 mice following a single intravenous dose of 50 mg/kg. To this end, mice were sacrificed at […], and 6 and 24 hours after administration of radiolabeled AQGV (SEQ ID NO: 5), counts in various tissues were determined, and the radioactivity present in the urine and plasma were analyzed by HPLC.

[6] = cited from earlier work

For `CC(C)[C@H](NC(=O)CNC(=O)[C@H](CCC(N)=O)NC(=O)[C@H](C)N)C(=O)O` [AQGV-citrate] (H-AQGV-OH), the “solubility compared to AQGV-Ac” value ([1]; 0.9% NaCl) was “Higher solubility”, the “appearance / behaviour of the concentrated solution” value (“appearance / behaviour” below) ([1]; 0.9% NaCl, listed as Citric acid) was “does not crystallize or aggregate but tend to form a highly viscous solution” and the “appearance / behaviour” value ([1]; 0.9% NaCl, listed as citric acid) was “remains clear but got very thick/viscous”. It also gave a total amount dissolved ([1]; in 0.5 mL 0.9% NaCl) of 2.75 mmol.
In the case of `CC(C)[C@H](NC(=O)CNC(=O)[C@H](CCC(N)=O)NC(=O)[C@H](C)N)C(=O)O` [AQGV] (H-AQGV-OH), the clearance ([2]; human, in vivo, iv, range over phase I studies, read-out: clearance rate) is reported as 433 to 1020 mL/min/kg, the half-life ([2]; human, in vivo, iv, range over phase I studies, read-out: estimated half life time) is reported as 2 to 22 min and the Vd ([2]; human, in vivo, iv, range over phase I studies, read-out: volume of distribution) is reported as 4 to 33 L/kg. For the same compound, the “more than proportional increases in exposure to the highest dosages” value ([2]; i.v., range over phase I studies) was 126-137%, the tolerability ([2]; i.v., single, multiple and continuous dosing up to 90 mg/kg/hour) was “well tolerated” and the serious adverse events ([2]; phase I studies) was “no serious adverse events”. The “subjects reporting AEs with a possible relationship to study drug” value ([2]; subjects receiving AQGV) was 3 subjects, the tolerability [3] was “well tolerated” and the “effect on p38 MAPK kinase activated changes” value (p38 MAPK; hPBMC) was “reduces p38 MAPK kinase activated changes”. The “time after FPR-stimulation at which effects on p38 MAPK are detected” value (p38 MAPK; hPBMC, 20 and 50 ng/ml AQGV) was 30 s, the “duration of effects on p38 signalling” value (p38 MAPK; hPBMC, 600 seconds tested) was 600 s and the “effect on P42/p44MAPK/ERK1,2 phosphorylation status” value (P42/p44MAPK/ERK1,2) was “not affected throughout”. For the same compound, the “effect on PI3K/AKT/mTOR activated induced changes” value (PKB (also known as AKT); hPBMC) was “reduces PI3K/AKT/mTOR activated induced changes”, the “duration of effects on PKB-mediated signalling” value (PKB (also known as AKT); hPBMC, 600 seconds tested) was 600 s and the “time after FPR-stimulation at which effects on PKB(AKT) follow” value (PKB (also known as AKT); hPBMC, bi-phasic pattern) was 300 s. For the same compound, the “effect on JNK phosphorylation status” value (JNK) was “not affected throughout”.
In the case of `C[C@H](N)C(=O)O` [L-Alanine], the “autophagic effects on human cells” value (human cells) is listed as “most prominent autophagic effects” and the “Literature based activity autophagy” value (autophagy) is listed as “DOWN”.
For `N=C(N)NCCC[C@H](N)C(=O)O` [L-Arginine], the “Literature based activity autophagy” value (autophagy) is listed as “DOWN” and the “Literature based activity mTOR kinases” value (mTOR kinases) is listed as “activate”.
For `NC(=O)CC[C@H](N)C(=O)O` [L-Glutamine], the “autophagic effects on human cells” value (human cells) is given as “most prominent autophagic effects”, the “Literature based activity autophagy” value (autophagy) is given as “DOWN” and the “Literature based activity mTOR kinases” value (mTOR kinases) is given as “activate”.
In the case of `NCC(=O)O` [L-Glycine], the “Literature based activity autophagy” value (autophagy) is given as “DOWN”.
For `N[C@@H](Cc1c[nH]cn1)C(=O)O` [L-Histidine], the “Literature based activity mTOR kinases” value (mTOR kinases) is given as “down”.
In the case of `CC[C@H](C)[C@H](N)C(=O)O` [L-Isoleucine], the “Literature based activity autophagy” value (autophagy) is given as “DOWN” and the “Literature based activity mTOR kinases” value (mTOR kinases) is given as “activate”.
For `CC(C)C[C@H](N)C(=O)O` [L-Leucine], the “autophagic effects on human cells” value (human cells) is listed as “most prominent autophagic effects”, the “Literature based activity autophagy” value (autophagy) is listed as “DOWN” and the “Literature based activity mTOR kinases” value (mTOR kinases) is listed as “activate”.
For `NCCCC[C@H](N)C(=O)O` [L-Lysine], the “Literature based activity mTOR kinases” value (mTOR kinases) is given as “down”.
For `CSCC[C@H](N)C(=O)O` [L-Methionine], the “Literature based activity mTOR kinases” value (mTOR kinases) is given as “partial”.
In the case of `O=C(O)[C@@H]1CCCN1` [L-Proline], the “autophagic effects on human cells” value (human cells) is listed as “most prominent autophagic effects” and the “Literature based activity mTOR kinases” value (mTOR kinases) is listed as “activate”.
For `C[C@@H](O)[C@H](N)C(=O)O` [L-Threonine], the “Literature based activity mTOR kinases” value (mTOR kinases) is given as “down”.
For `CC(C)[C@H](N)C(=O)O` [L-Valine], the “Literature based activity mTOR kinases” value (mTOR kinases) is listed as “activate”.
With `Nc1ncnc2c1ncn2[C@@H]1O[C@H](COP(=O)(O)O)[C@@H](O)[C@H]1O` [adenosine-monophosphate] the “appearance / behaviour” value ([1]; 0.9% NaCl) was “no clear solution could be obtained”.
In the case of `Nc1ncnc2c1ncn2[C@@H]1O[C@H](CO)[C@@H](O)[C@H]1O` [adenosine], the “appearance / behaviour” value ([1]; 0.9% NaCl) is reported as “no clear solution could be obtained” and the “solubility in DMSO” value [4] is reported as “did not dissolve in DMSO at all”.
For `CSCC[C@H](NC=O)C(=O)N[C@@H](CC(C)C)C(=O)N[C@@H](Cc1ccccc1)C(=O)O` [fMLP, N-formyl-methionyl-leucyl-phenylalanine, reference compound], the “changes in phosphorylation status of p38 MAPK caused by FPR-activation” value (p38 MAPK; p<0.05 from 60 to 600 sec) was “rapidly induced and significant” and the “changes in phosphorylation status of PKB caused by FPR-activation” value (PKB (also known as AKT); p<0.05 at 600 sec) was “rapidly induced and significant”.
For Ala-Gln-[1-^14C]Gly-Val [[14C]-AQGV], the “administered radioactivity exhaled as volatiles” value [5] was “About 50%” and the “time to full hydrolysis of the peptide after administration” value [5] was 15 min.
For VRLIVAVRIWRR-NH2 [IDR-1018], the aggregation ([6]; prepared in sodium acetate) is given as “did not induce any appreciable aggregation”, the aggregation ([6]; solutions containing large polyatomic anions: phosphate, benzoate, nitrate, citrate) is given as “suffer strongly from aggregation” and the aggregation ([6]; solutions containing sulfate, bicarbonate, chloride, iodide anions) is given as “comparatively small amount of aggregation”. For the same compound, the “ion concentration at which aggregation was observed” value ([6]; sulfate, bicarbonate, chloride, iodide anions) was “above 200 mM”.
